From patent US4977189A, “Substituted guanidinedicarbonyl derivatives” (American Cyanamid Company, priority 1988, dated 1990)

Experiments:
[1] = system: Brain-Specific Receptors (3H-benzodiazepine binding); assay: Inhibition of the Binding of 3H-Benzodiazepine to Brain-Specific Receptors of Rats; set-up: species or system rat (male albino, Wistar strain; whole cortex); details: 3H-diazepam (1.5 nM) or 3H-flunitrazepam (1.0 nM); rat cortex P2-fraction; 30 minutes in ice; test concentration not given
Description: A test utilized for the determination of anxiolytic activity is the measurement of the ability of test compounds to inhibit the binding of tritiated benzodiazepines to brain-specific recptors of warm-blooded animals. A modification of the method described by R. F. Squires, et al., Nature, 266, No. 21, pg 732 (April, 1977) and H. Mohler, et al., Science, 198, pg 849 (1977) was employed.
Male albino rats (Wistar strain, weighing 150-200 g each) were used. The test compounds were solubilized in either dimethylformamide, acetic acid, ethanol or hydrochloric acid.
Whole cortex of rats was homogenized gently in 20 volumes of ice-cold 0.32M sucrose, centrifuged twice at 1000 g for 10 minutes and then recentrifuged at 30,000 g for 20 minutes to produce a crude P2 -synaptosomal fraction. The P2 -fraction was either: (1) resuspended in twice the original volume in hypotonic 50 mM Tris.HCl (pH 7.4), or (2) resuspended in one-half the original volume in hypotonic 10 mM Tris.HCl (pH 7.4) and frozen (-20° C.) until time of use. Frozen P2 preparations were thawed and resuspended in four times the original homogenizing volume at time of assay.
The binding assay consisted of 300 μl of the P2 -fraction suspension (0.2-0.4 mg protein), 100 μl of test drug and 100 μl of ^3 H-diazepam (1.5 nM, final concentration) or ^3 H-flunitrazepam (1.0 nM, final concentration) which was added to 1.5 ml of 50 mM Tris.HCl (pH 7.4). Non-specific binding controls and total binding controls d 100 μl of diazepam (3 μM final concentration) and 100 μl of deionized water, respectively, in place of the test compound. Incubation for 30 minutes proceeded in ice and was terminated by filtration, under vacuum, through glass fiber filters. The filters were washed twice with 5 ml of ice-cold 50 mM Tris.HCl (pH 7.4) and placed in scintillation vials. After drying at 50°-60° C. for 30 minutes, 10 ml of diluent was added and the radioactivity determined in a scintillation counter.
Inhibition of binding was calculated by the difference between total binding and binding in the presence of test compound, divided by the total binding, X 100.

Royal Hart mice = assay: Hypoxic Survival Test; type: in vivo, mouse (Royal Hart); details: 10% oxygen; for responders at 50 mg/kg / responders at 100 mg/kg / responders at 10 mg/kg / responders at 200 mg/kg / responders at 25 mg/kg: Mus musculus, ip, 5 min, 30 minutes prior, survival after 5 minutes, read-out: % Survivors; for responders at 50 mg/kg: 50 mg/kg intraperitoneally; for responders at 100 mg/kg: 100 mg/kg intraperitoneally; for responders at 10 mg/kg: 10 mg/kg intraperitoneally; for responders at 200 mg/kg: 200 mg/kg intraperitoneally; for responders at 25 mg/kg: 25 mg/kg intraperitoneally
Method: A useful in vivo test that measures how effectively central nervous system-acting drugs enhance survival in a hypoxic environment, presumably by improving the ratio of energy supply to demand is known as the Hypoxic Survival Test. […] Drugs are tested by intraperitoneally injecting groups of mice 30 minutes prior to placing them in a hypoxic mixture and measuring survival. The rationale of this test is that drugs which enhance survival under hypoxic conditions without concomitant, depression or sedative side effects, may do so by enhancing energy metabolism, or by preserving normal brain function under conditions of reduced energy metabolism. Given the dependence of the brain on a constant supply of energy, drugs which have this property may have many far-reaching therapeutic indications, including recovery from stroke and closed head injury, as well as reducing the deleterious effects of the aging central nervous system.
Groups of 20 Royal Hart mice (6 weeks of age) are injected intraperitoneally with test compound (1-200 mg/kg) 30 minutes prior to placing them in a hypoxic mixture (10% oxygen in 90% […]) and measuring survival after 5 minutes.
A separate group of 20 mice is injected intraperitoneally with saline solution (0.01 cc/g of body weight) and processed as described above.
Still another group of 20 mice is injected intraperitoneally with 0.125 mg/kg of physostigmine and processed as described above.

Compound: CN(C)C(=O)c1ccc(NC(=NC(=O)c2ccccc2)NC(=O)c2ccccc2)cc1 [4-[[(Benzoylamino)(benzoylimino)methyl]amino]-N,N-dimethylbenzamide]
- % Inhibition [1]: 14%

Compound: Cc1cccc(C(=O)NC(=Nc2ccc(C(=O)N(C)C)cc2)NC(=O)c2cccc(C)c2)c1 [4-[[Bis[(3-methylbenzoyl)amino]methylene]amino]-N,N-dimethylbenzamide]
- % Inhibition [1]: 29%

Compound: Cc1cccc(C(=O)N=C(NC(=O)c2cccc(C)c2)Nc2ccccc2C(N)=O)c1 [N,N'-[[2-(Aminocarbonyl)phenyl]carbonimidoyl]bis[3-methylbenzamide]]
- responders at 50 mg/kg (Royal Hart mice): 40%
- responders at 100 mg/kg (Royal Hart mice): 48%

Compound: CCN(CC)CCNC(=NC(=O)c1ccc(C(F)(F)F)cc1)NC(=O)c1ccc(C(F)(F)F)cc1 [N,N'-[[2-(Diethylaminoethyl]carbonimidoyl]bis[4-(trifluoromethyl)benzamide]
- responders at 10 mg/kg (Royal Hart mice): 45%
- responders at 50 mg/kg (Royal Hart mice): 70%
- responders at 100 mg/kg (Royal Hart mice): 65%
- responders at 200 mg/kg (Royal Hart mice): 85%

Compound: Cc1cccc(C(=O)N=C(NC(=O)c2cccc(C)c2)Nc2cccc(C(N)=O)c2)c1 [N,N'-[[3-(Aminocarbonyl)phenyl]carbonimidoyl]bis[3-methylbenzamide]]
- % Inhibition [1]: 17%

Compound: COc1ccc(C(=O)N=C(NC(=O)c2ccc(OC)cc2)Nc2ccc(C(N)=O)cc2)cc1 [N,N'-[[4-(Aminocarbonyl)phenyl]carbonimidoyl]bis[4-methoxybenzamide]]
- % Inhibition [1]: 17%

Compound: CCCCCCCCNC(=O)c1ccc(NC(=NC(=O)c2cccc(C)c2)NC(=O)c2cccc(C)c2)cc1 [N,N'-[[4-(Octylamino)carbonyl]phenyl]carbonimidoyl]bis[3-methylbenzamide]]
- % Inhibition [1]: 16%

Compound: NS(=O)(=O)c1ccc(CNC(=NC(=O)c2ccccc2)NC(=O)c2ccccc2)cc1 [N,N'-[[[4-(Aminosulfonyl)phenyl]methyl]carbonimidoyl]bisbenzamide]
- responders at 10 mg/kg (Royal Hart mice): 50%
- responders at 100 mg/kg (Royal Hart mice): 35%

Compound: CNC(=O)c1ccc(NC(=NC(=O)c2cccc(C)c2)NC(=O)c2cccc(C)c2)cc1 [N,N'[[4-[(Methylamino)carbonyl]phenyl]carbonimidoyl]bis[3-methylbenzamide]]
- % Inhibition [1]: 17%

Compound: COc1ccc(C(=O)NC(=NC(=O)c2ccc(C)cc2)Nc2ccccc2C(N)=O)cc1 [N-[[[2-(Aminocarbonyl)phenyl]amino][(4-methoxybenzoyl)amino]methylene]-4-methylbenzamide]
- % Inhibition [1]: 10%

Compound: Cc1cccc(C(=O)N=C(NC(=O)c2ccccc2)Nc2cccc(C(N)=O)c2)c1 [N-[[[3-(Aminocarbonyl)phenyl]amino](benzoylamino)methylene]-3-methylbenzamide]
- % Inhibition [1]: 15%

Compound: COc1ccc(C(=O)NC(=NC(=O)c2ccc(C)cc2)Nc2cccc(C(N)=O)c2)cc1 [N-[[[3-(Aminocarbonyl)phenyl]amino][(4-methoxybenzoyl)amino]methylene]-4-methylbenzamide]
- % Inhibition [1]: 12%

Compound: NC(=O)c1ccc(NC(=NC(=O)c2cccs2)NC(=O)c2ccccc2)cc1 [N-[[[4-(Aminocarbonyl)phenyl]amino](benzoylamino)methylene]-2-thiophenecarboxamide]
- responders at 10 mg/kg (Royal Hart mice): 50%
- responders at 50 mg/kg (Royal Hart mice): 50%

Compound: COc1cc(C(=O)N=C(NC(=O)c2ccccc2)Nc2ccc(C(N)=O)cc2)cc(OC)c1OC [N-[[[4-(Aminocarbonyl)phenyl]amino](benzoylamino)methylene]-3,4,5-trimethoxybenzamide]
- responders at 10 mg/kg (Royal Hart mice): 50%
- responders at 25 mg/kg (Royal Hart mice): 50%

Compound: NC(=O)c1ccc(NC(=NC(=O)c2cccc(Br)c2)NC(=O)c2ccccc2)cc1 [N-[[[4-(Aminocarbonyl)phenyl]amino](benzoylamino)methylene]-3-bromobenzamide]
- responders at 10 mg/kg (Royal Hart mice): 50%

Compound: Cc1cccc(C(=O)N=C(NC(=O)c2ccccc2)Nc2ccc(C(N)=O)cc2)c1 [N-[[[4-(Aminocarbonyl)phenyl]amino](benzoylamino)methylene]-3-methylbenzamide]
- % Inhibition [1]: 33%

Compound: NC(=O)c1ccc(NC(=NC(=O)c2ccc(Br)cc2)NC(=O)c2ccccc2)cc1 [N-[[[4-(Aminocarbonyl)phenyl]amino](benzoylamino)methylene]-4-bromobenzamide]
- responders at 10 mg/kg (Royal Hart mice): 42%
- responders at 25 mg/kg (Royal Hart mice): 60%
- responders at 100 mg/kg (Royal Hart mice): 43%

Compound: NC(=O)c1ccc(NC(=NC(=O)Cc2ccccc2)NC(=O)c2ccccc2)cc1 [N-[[[4-(Aminocarbonyl)phenyl]amino](benzoylamino)methylene]benzeneacetamide]
- % Inhibition [1]: 22%

Compound: NC(=O)c1ccc(NC(=NC(=O)c2ccccc2)NC(=O)C23CC4CC(CC(C4)C2)C3)cc1 [N-[[[4-(Aminocarbonyl)phenyl]amino](benzoylamino)methylene]tricyclo[3.3.1.1^3.7]decane-1-carboxamide]
- responders at 50 mg/kg (Royal Hart mice): 42%

Compound: COc1ccc(C(=O)N=C(NC(=O)c2ccc(C)cc2)Nc2ccc(C(N)=O)cc2)cc1 [N-[[[4-(Aminocarbonyl)phenyl]amino][4-methylbenzoyl)amino]methylene]-4-methoxybenzamide]
- responders at 100 mg/kg (Royal Hart mice): 43%

Compound: NC(=O)c1ccc(NC(=NC(=O)c2ccccc2)NC(=O)C=Cc2ccccc2)cc1 [N-[[[4-(Aminocarbonyl)phenyl]amino][(1-oxo-3-phenyl-2-propenyl)amino]methylene]benzamide]
- responders at 100 mg/kg (Royal Hart mice): 40%

Compound: NC(=O)c1ccc(NC(=NC(=O)c2ccc(F)cc2)NC(=O)c2ccc(Br)cc2)cc1 [N-[[[4-(Aminocarbonyl)phenyl]amino][(4-bromobenzoyl)amino]methylene]-4-fluorobenzamide]
- responders at 25 mg/kg (Royal Hart mice): 40%
- responders at 100 mg/kg (Royal Hart mice): 44%

Compound: Cc1ccc(C(=O)N=C(NC(=O)c2ccc(Br)cc2)Nc2ccc(C(N)=O)cc2)cc1 [N-[[[4-(Aminocarbonyl)phenyl]amino][(4-bromobenzoyl)amino]methylene]-4-methylbenzamide]
- % Inhibition [1]: 57%

Compound: COc1ccc(C(=O)N=C(NC(=O)c2ccc(F)cc2)Nc2ccc(C(N)=O)cc2)cc1 [N-[[[4-(Aminocarbonyl)phenyl]amino][(4-fluorobenzoyl)amino]methylene]-4-methoxybenzamide]
- responders at 25 mg/kg (Royal Hart mice): 45%
- responders at 50 mg/kg (Royal Hart mice): 60%
- responders at 100 mg/kg (Royal Hart mice): 42%

Compound: COc1ccc(C(=O)NC(=NC(=O)c2cccc(C)c2)Nc2ccc(C(N)=O)cc2)cc1 [N-[[[4-(Aminocarbonyl)phenyl]amino][(4-methoxybenzoyl)amino]methylene]-3-methylbenzamide]
- responders at 10 mg/kg (Royal Hart mice): 50%
- responders at 50 mg/kg (Royal Hart mice): 45%
- responders at 100 mg/kg (Royal Hart mice): 50%
- responders at 200 mg/kg (Royal Hart mice): 45%

Compound: COc1ccc(C(=O)NC(=NC(=O)c2ccc(C(F)(F)F)cc2)Nc2ccc(C(N)=O)cc2)cc1 [N-[[[4-(Aminocarbonyl)phenyl]amino][(4-methoxybenzoyl)amino]methylene]-4-(trifluoromethyl)benzamide]
- responders at 50 mg/kg (Royal Hart mice): 55%
- responders at 100 mg/kg (Royal Hart mice): 47%

Compound: NC(=O)c1ccc(NC(=NC(=O)c2ccc(C(F)(F)F)cc2)NC(=O)c2ccccc2)cc1 [N-[[[4-(Aminocarbonyl)phenyl]amino][benzoylamino]methylene]-4-(trifluoromethyl)benzamide]
- responders at 50 mg/kg (Royal Hart mice): 45%

Compound: CNC(=O)Oc1ccc2c(c1)[C@]1(C)CCN(C)[C@@H]1N2C [physostigmine, reference compound]
- physostigmine treated mice that survive (Royal Hart mice; 0.125 mg/kg intraperitoneally, after 5 minutes, saline control mice 5-20%): 60-80%
